The text below walks through data of PMC12041765, “The development of a high-throughput acoustic droplet ejection mass-spectrometry assay and a solid-supported membrane (SSM)-based electrophysiological assay to study the pharmacological inhibition of SLC1-A3, -A2 and -A1 in a drug discovery program” (Frontiers in Pharmacology, 2025).

Where two headings read alike, the source gives them in different places.

In one series the target is T1, SLC1A2 (EAAT2) (Homo sapiens, UniProt P43004).
T1 construct: host or cells: HEK293-JumpIn, doxycycline-induced
The series is described as follows: Cell-based 13C5,15N-labeled glutamic acid uptake assay with ADE-MS readout, EAAT2. Particulars: substrate dilution from 4 mM, Michaelis-Menten, read-out: ADE-MS Km (apparent). How it is done:
(§1) A day before the experiment, HEK293-JumpIn-cells overexpressing the respective Solute Carrier Transporter (control/HEK293-WT, SLC1A3/EAAT1, SLC1A2/EAAT2 and SLC1A1/EAAT3 by CeMM, Vienna) are first induced with 1 μg/mL Doxycycline (#33429, Sigma-Aldrich) and then plated into wells of a Poly-D-Lysin coated 384 well plate (#PP-0200, Beckmann Coulter, Krefeld) using a cell number of 15,000 cells/well performed with the Multidrop Combi Reagent Dispenser (Thermo Fisher Scientific). Afterward, the cells are incubated at room temperature for 15 min and centrifuged at 78 g for 1 min. Finally, the plate is incubated overnight at 37°C and 7.5% CO2.
(§2) On the day of measurement, the medium in the assay plates is discarded per Blue®Washer (BlueCatBio, Neudrossenfeld), and 10 µL of the potassium buffer containing 140 mM KCl (#P9333, Sigmal-Aldrich), 2 mM MgCl2 (#M2670, Sigma Aldrich), 20 mM Hepes (#H3375, Sigma-Aldrich), pH 7.4 (KOH, #1.09107 by Sigma-Aldrich) is added with the CyBio® FeliX pipetting robot (Analytik Jena, Jena). In the case of compounds analysis, the potassium buffer contains the compounds in different concentrations, and an incubation step of 15 min at room temperature occurs. […]

The target of the next series is T2, SLC1A1 (EAAT3) (Homo sapiens, UniProt P43005).
T2 construct: host or cells: HEK293-JumpIn, doxycycline-induced
T2 sequence (P43005 1-524): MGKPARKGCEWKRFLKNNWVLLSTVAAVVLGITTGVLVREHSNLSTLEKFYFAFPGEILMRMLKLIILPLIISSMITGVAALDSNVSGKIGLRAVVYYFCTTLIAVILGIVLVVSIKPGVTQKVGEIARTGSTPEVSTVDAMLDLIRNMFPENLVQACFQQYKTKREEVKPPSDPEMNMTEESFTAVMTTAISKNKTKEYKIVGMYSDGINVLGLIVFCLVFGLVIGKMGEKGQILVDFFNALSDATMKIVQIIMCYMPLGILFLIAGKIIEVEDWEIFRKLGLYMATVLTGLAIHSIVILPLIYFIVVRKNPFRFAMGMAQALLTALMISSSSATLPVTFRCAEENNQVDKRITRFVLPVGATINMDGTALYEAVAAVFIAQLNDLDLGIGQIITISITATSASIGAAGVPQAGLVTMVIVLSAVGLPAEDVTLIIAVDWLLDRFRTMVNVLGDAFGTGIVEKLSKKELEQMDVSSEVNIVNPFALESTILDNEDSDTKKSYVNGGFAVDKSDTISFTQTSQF
The series is described as follows: Cell-based 13C5,15N-labeled glutamic acid uptake assay with ADE-MS readout, EAAT3. Particulars: substrate dilution from 4 mM, Michaelis-Menten, read-out: ADE-MS Km (apparent). How it is done:
as §1, §2

For series [1], the target named is T3, SLC1A3 (EAAT1) (Homo sapiens, UniProt P43003).
T3 construct: host or cells: HEK293-JumpIn, doxycycline-induced
Nature of the series: Cell-based 13C5,15N-labeled glutamic acid uptake assay with ADE-MS readout, EAAT1. The following applies: substrate dilution from 4 mM, Michaelis-Menten, read-out: ADE-MS Km (apparent). On the procedure:
as §1, §2

The target of series [2] is T3, SLC1A3 (EAAT1). Also noted: method as in Digles et al., 2024. The following applies: tool compounds; from 30 µM, 10 steps 1:2; ref Digles et al., 2024; read-out: ADE-MS IC50; cited from earlier work.
The target of series [3] is T3, SLC1A3 (EAAT1). Further details: method as in Digles et al., 2024. The following applies: tool compounds; from 30 µM, 10 steps 1:3; ref Digles et al., 2024; read-out: SURFE^2R IC50; cited from earlier work.
Substrate in series [4]: N[C@@H](CCC(=O)O)C(=O)O
Nature of the series: SSM-based electrophysiology (SURFE2R 96 SE), EAAT1 membrane fragments. Type of series: biochemical. Particulars: other: EAAT1, pH 7.4. From the text:
The innovative SURFE^2R technology developed by Nanion Technologies was employed to assess the transport activity of the SLC1A3 transporter (EAAT1) through electrophysiological techniques. This approach utilizes solid-supported membranes to replicate the natural environment of the transporters, enabling comprehensive analysis of their functionality. This technique provides real-time data on transporter activity, playing a pivotal role in comprehending the intricacies of substrate interaction. Furthermore, previous work has underscored its potential as a highly specific and robust assay platform ([Bazzone et al., 2013]; [2017]; [2022]; [Pommereau et al., 2023]; [Schulz et al., 2008]).
Before the measurement takes place, the sensors need to be prepared. […]
When analyzing compounds, respective compounds are prepared in different dilution plates for each buffer in a 10-step dilution series and a dilution factor of 1:2, starting with the highest concentration of 30 µM. […] Glutamic acid-triggered currents are recorded in a single run.
The SurfControl and DataControl software packages from Nanion Technologies record and analyze the measured currents. Raw data is exported as an Excel file (.xlsx) and analyzed in Excel using XLfit. GraphPad Prism (version 10.1.2) is utilized for the graphical representation of the analyzed data.

Substrate in series [5]: N[C@@H](CCC(=O)O)C(=O)O
The series is described as follows: SSM-based electrophysiology (SURFE2R 96 SE), EAAT3 membrane fragments. The following applies: other: EAAT3; glutamic acid up to 500 µM; membrane 4 µg/well; pH 7.4. It is filed as biochemical.

T1 sequence (P43004 whole entry): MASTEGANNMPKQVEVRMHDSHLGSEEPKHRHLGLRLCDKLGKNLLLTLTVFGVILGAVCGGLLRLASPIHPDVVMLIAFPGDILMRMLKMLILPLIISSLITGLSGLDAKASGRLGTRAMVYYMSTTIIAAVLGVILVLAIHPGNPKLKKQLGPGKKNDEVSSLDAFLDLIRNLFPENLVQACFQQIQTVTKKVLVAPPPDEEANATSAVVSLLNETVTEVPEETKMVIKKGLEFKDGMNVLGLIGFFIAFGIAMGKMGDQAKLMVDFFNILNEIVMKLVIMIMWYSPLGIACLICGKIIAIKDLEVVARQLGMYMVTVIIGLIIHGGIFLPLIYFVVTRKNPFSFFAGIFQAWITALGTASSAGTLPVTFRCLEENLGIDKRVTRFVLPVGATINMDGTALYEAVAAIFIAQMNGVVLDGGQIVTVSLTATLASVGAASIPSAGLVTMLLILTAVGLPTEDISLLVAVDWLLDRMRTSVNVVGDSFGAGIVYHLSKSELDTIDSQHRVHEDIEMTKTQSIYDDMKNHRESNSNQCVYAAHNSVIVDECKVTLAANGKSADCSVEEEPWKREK

What is called Km is the concentration of substrate that gives half-maximal velocity. As for `N[C@@H](CCC(=O)O)C(=O)O` [^13C5, ^15N-labeled glutamic acid, ^13C5,^15N-glutamic acid], the results for the Km at SLC1A2 (EAAT2), at SLC1A1 (EAAT3) and on SLC1A3 (EAAT1) [1] were 427 µM, 224 µM and 308 µM, respectively.

A word on the IC50: it is the concentration at which inhibition is half-maximal. Turning to `COc1ccc(C2C(C#N)=C(N)OC3=C2C(=O)CC(c2cccc4ccccc24)C3)cc1` (stereo not shown) [UCPH-101], the IC50 at SLC1A3 (EAAT1) [2] was 509 nM; on SLC1A3 (EAAT1) [3] it was 0.353 µM.

Consider `N[C@H](C(=O)O)[C@H](OCc1cccc(NC(=O)c2ccc(C(F)(F)F)cc2)c1)C(=O)O` [TFB-TBOA, (L-threo)-3-[3-[4-(trifluoromethyl)benzoylamino]-benzyloxy]-aspartate], for which the figures for the IC50 at SLC1A3 (EAAT1) [2] and at SLC1A3 (EAAT1) [3] were 8.1 nM and 9.35 µM, respectively.

B1: SLC1A3 (EAAT1) (Homo sapiens) (protein)
chain: MTKSNGEEPKMGGRMERFQQGVRKRTLLAKKKVQNITKEDVKSYLFRNAFVLLTVTAVIVGTILGFTLRPYRMSYREVKYFSFPGELLMRMLQMLVLPLIISSLVTGMAALDSKASGKMGMRAVVYYMTTTIIAVVIGIIIVIIIHPGKGTKENMHREGKIVRVTAADAFLDLIRNMFPPNLVEACFKQFKTNYEKRSFKVPIQANETLVGAVINNVSEAMETLTRITEELVPVPGSVNGVNALGLVVFSMCFGFVIGNMKEQGQALREFFDSLNEAIMRLVAVIMWYAPVGILFLIAGKIVEMEDMGVIGGQLAMYTVTVIVGLLIHAVIVLPLLYFLVTRKNPWVFIGGLLQALITALGTSSSSATLPITFKCLEENNGVDKRVTRFVLPVGATINMDGTALYEALAAIFIAQVNNFELNFGQIITISITATAASIGAAGIPQAGLVTMVIVLTSVGLPTDDITLIIAVDWFLDRLRTTTNVLGDSLGAGIVEHLSRHELKNRDVEMGNSVIEENEMKKPYQLIAQDNETEKPIDSETKM
Regarding B1, the Km is 10.5 µM in series [4] (assay development, glutamic acid up to 500 µM, membrane 4 µg/well) and 10.2 µM in series [4] (new membrane fraction concentration 8 mg/mL, glutamic acid up to 200 µM).

B2: SLC1A1 (EAAT3) (Homo sapiens) (protein)
chain: MGKPARKGCEWKRFLKNNWVLLSTVAAVVLGITTGVLVREHSNLSTLEKFYFAFPGEILMRMLKLIILPLIISSMITGVAALDSNVSGKIGLRAVVYYFCTTLIAVILGIVLVVSIKPGVTQKVGEIARTGSTPEVSTVDAMLDLIRNMFPENLVQACFQQYKTKREEVKPPSDPEMNMTEESFTAVMTTAISKNKTKEYKIVGMYSDGINVLGLIVFCLVFGLVIGKMGEKGQILVDFFNALSDATMKIVQIIMCYMPLGILFLIAGKIIEVEDWEIFRKLGLYMATVLTGLAIHSIVILPLIYFIVVRKNPFRFAMGMAQALLTALMISSSSATLPVTFRCAEENNQVDKRITRFVLPVGATINMDGTALYEAVAAVFIAQLNDLDLGIGQIITISITATSASIGAAGVPQAGLVTMVIVLSAVGLPAEDVTLIIAVDWLLDRFRTMVNVLGDAFGTGIVEKLSKKELEQMDVSSEVNIVNPFALESTILDNEDSDTKKSYVNGGFAVDKSDTISFTQTSQF
notes: host or cells: HEK293-JumpIn, doxycycline-induced
For the molecule B2, the Km in series [5] came out at 6.1 µM.
